# Experimental data reported in US8415342B2, “Besifloxacin ophthalmic composition for the treatment or control of infection” (Bausch & Lomb Incorporated, priority 2008, dated 2013).
# Like-named read-outs stand apart in the source and are kept apart here.
# Tested on: Pathogens Associated With Bacterial Conjunctivitis
# Experiment: Integrated besifloxacin MIC data from preclinical (nonclinical) studies (Table 8)
# Format: cell-based
# [1] = Clostridium perfringens, N 21, agar dilution
structure (smiles),measurement,setting,value
"N[C@@H]1CCCCN(c2c(F)cc3c(=O)c(C(=O)O)cn(C4CC4)c3c2Cl)C1 [Besifloxacin, (R)-(+)-(3-amino-2,3,4,5,6,7-hexahydro-1H-azepin-1-yl)-8-chloro-1-cyclopropyl-6-fluoro-1,4,-dihydro-4-oxo-3-quinolinecarboxylic acid]",MIC50,"Acinetobacter baumannii, Acinetobacter baumanii Quinolone-R, N 5, read-out: MIC50",> 8 µg/mL
same,MIC50,"Acinetobacter baumannii, Acinetobacter baumanii Quinolone-S, N 43, read-out: MIC50",0.5 µg/mL
same,MIC90,"Acinetobacter baumannii, Acinetobacter baumanii Quinolone-S, N 43, read-out: MIC90",2 µg/mL
same,MIC50,"Acinetobacter baumannii-calcoaceticus Quinolone-R, N 10, read-out: MIC50",> 8 µg/mL
same,MIC90,"Acinetobacter baumannii-calcoaceticus Quinolone-R, N 10, read-out: MIC90",> 8 µg/mL
same,MIC Range,"Acinetobacter baumannii-calcoaceticus Quinolone-S, N 23",0.12 to 4 µg/mL
same,MIC50,"Acinetobacter baumannii-calcoaceticus Quinolone-S, N 23, read-out: MIC50",0.5 µg/mL
same,MIC Range,"Acinetobacter lwoffii, N 13",0.12 to 2 µg/mL
same,MIC50,"Acinetobacter lwoffii, N 13, read-out: MIC50",0.5 µg/mL
same,MIC90,"Acinetobacter lwoffii, N 13, read-out: MIC90",0.5 µg/mL
same,MIC50,"Bacteroides fragilis, N 20, agar dilution, read-out: MIC50",0.5 µg/mL
same,MIC90,"Bacteroides fragilis, N 20, agar dilution, read-out: MIC90",1 µg/mL
same,MIC Range,"Citrobacter koser Quinolone-R, N 1",>8 µg/mL
same,MIC Range,"Citrobacter koser Quinolone-S, N 99",0.03 to 4 µg/mL
same,MIC90,"Citrobacter koser Quinolone-S, N 99, read-out: MIC90",0.25 µg/mL
same,MIC50,[1],0.25 µg/mL
same,MIC90,[1],0.25 µg/mL
same,MIC Range,[1],0.12 to 0.25 µg/mL
same,MIC Range,"Corynebacterium species, N 30, agar dilution",≦0.06-2 μg/mL
same,MIC50,"Corynebacterium species, N 30, agar dilution, read-out: MIC50",0.25 µg/mL
same,MIC90,"Corynebacterium species, N 30, agar dilution, read-out: MIC90",2 µg/mL
same,MIC50,"Cutibacterium acnes, Propionibacterium acnes, N 21, agar dilution, read-out: MIC50",0.25 µg/mL
same,MIC90,"Cutibacterium acnes, Propionibacterium acnes, N 21, agar dilution, read-out: MIC90",0.25 µg/mL
same,MIC Range,"Enterobacter aerogene Quinolone-S, N 37",0.12 to 4 µg/mL
same,MIC50,"Enterobacter aerogene Quinolone-S, N 37, read-out: MIC50",0.25 µg/mL
same,MIC90,"Enterobacter aerogene Quinolone-S, N 37, read-out: MIC90",2 µg/mL
same,MIC Range,"Enterobacter cloacae Quinolone-R, N 1",>8 µg/mL
same,MIC Range,"Enterobacter cloacae Quinolone-S, N 58",0.12 to 2 µg/mL
same,MIC50,"Enterobacter cloacae, Enterobacter cloacae Quinolone-S, N 58, read-out: MIC50",0.25 µg/mL
same,MIC90,"Enterobacter cloacae, Enterobacter cloacae Quinolone-S, N 58, read-out: MIC90",0.5 µg/mL
same,MIC Range,"Fusobacterium species, N 21, agar dilution",0.12 to 8 µg/mL
same,MIC50,"Fusobacterium species, N 21, agar dilution, read-out: MIC50",0.25 µg/mL
same,MIC90,"H. influenzae, value used for PK/PD ratios of Study 424",^bMIC90: H. influenzae ≦0.06 μg/mL.
same,MIC Range,"Haemophilus influenzae (all phenotypes), N 243",≦0.004-0.25 μg/mL
same,MIC Range,"Haemophilus influenzae β-lactamase+, N 118",0.008 to 0.12 µg/mL
same,MIC Range,"Haemophilus influenzae β-lactamase−, N 100",≦0.004-0.12 μg/mL
same,MIC90,"Haemophilus influenzae, H. influenzae, value used for PK/PD ratios of Study 424, read-out: MIC90",≤ 0.06 µg/mL
same,MIC50,"Haemophilus influenzae, Haemophilus influenzae (all phenotypes), N 243, read-out: MIC50",0.03 µg/mL
same,MIC50,"Haemophilus influenzae, Haemophilus influenzae β-lactamase+, N 118, read-out: MIC50",0.03 µg/mL
same,MIC50,"Haemophilus influenzae, Haemophilus influenzae β-lactamase− Ampicillin-R, N 25, read-out: MIC50",0.12 µg/mL
same,MIC90,"Haemophilus influenzae, Haemophilus influenzae β-lactamase− Ampicillin-R, N 25, read-out: MIC90",0.25 µg/mL
same,MIC50,"Haemophilus influenzae, Haemophilus influenzae β-lactamase−, N 100, read-out: MIC50",0.03 µg/mL
same,MIC Range,"Key Organisms Quinolone-S, N 894",≦0.004-1 μg/mL
same,MIC50,"Key Organisms Quinolone-S, N 894, read-out: MIC50",0.06 µg/mL
same,MIC90,"Key Organisms Quinolone-S, N 894, read-out: MIC90",0.12 µg/mL
same,MIC50,"Key Organisms combined, N 1205",0.06 µg/mL
same,MIC90,"Key Organisms combined, N 1205, read-out: MIC90",1 µg/mL
same,MIC Range,"Klebsiella oxytoca Quinolone-R, N 5",1 to 8 µg/mL
same,MIC50,"Klebsiella oxytoca Quinolone-R, N 5, read-out: MIC50",8 µg/mL
same,MIC Range,"Klebsiella oxytoca Quinolone-S, N 45",0.06 to 1 µg/mL
same,MIC90,"Klebsiella oxytoca, Klebsiella oxytoca Quinolone-S, N 45, read-out: MIC90",0.5 µg/mL
same,MIC50,"Legionella pneumophila, N 50",0.03 µg/mL
same,MIC90,"Legionella pneumophila, N 50",0.03 µg/mL
same,MIC Range,"Legionella pneumophila, N 50",0.015 to 0.06 µg/mL
same,MIC50,"Moraxella catarrhalis, N 201, read-out: MIC50",0.06 µg/mL
same,MIC90,"Moraxella catarrhalis, N 201, read-out: MIC90",0.12 µg/mL
same,MIC Range,"Moraxella species, N 30, agar dilution",≦0.06-0.13 μg/mL
same,MIC50,"Moraxella species, N 30, agar dilution, read-out: MIC50",≤ 0.06 µg/mL
same,MIC90,"Moraxella species, N 30, agar dilution, read-out: MIC90",0.13 µg/mL
same,MIC Range,"Morganella morganii Quinolone-S, N 39",0.03 to 2 µg/mL
same,MIC50,"Morganella morganii, Morganella morganii Quinolone-R, N 12, read-out: MIC50",4 µg/mL
same,MIC90,"Morganella morganii, Morganella morganii Quinolone-R, N 12, read-out: MIC90",8 µg/mL
same,MIC90,"Morganella morganii, Morganella morganii Quinolone-S, N 39, read-out: MIC90",1 µg/mL
same,MIC Range,"Neisseria gonorrhoeae, N 103",0.004 to 2 µg/mL
same,MIC50,"Neisseria gonorrhoeae, N 103, read-out: MIC50",0.015 µg/mL
